Data set [1] deals with APTAK tumor organoids. As to the kind of experiment: APTAK tumor organoids: S6 phosphorylation and organoid survival. The settings on record: 5-FU. The format is cell-based, mice.
Method: Organoids were cultured in medium−/+doxycycline prior to the experiment. […] Organoids were cultured in medium−/+doxycycline prior to the experiment.
Colon tumor organoids were cultured as previously described (27). AOM/DSS induced colon tumors were harvested by opening the colon longitudinally and dissociated enzymatically for 30-40 min in digestion media containing 1 mg/ml collagenase I (Sigma-Aldrich), 0.5 mg/ml Dispase (Roche), 50 μg/ml DNase (Sigma-Aldrich) in RPMI medium containing 2% FCS. Supernatant was washed and filtered through a 70 μM cell strainer. Cells were then embedded in Matrigel (Corning, #356231) and cultured in Advanced Dulbecco's modified Eagle's medium/F12 (Invitrogen, #12634-028) supplemented with Glutamax (Invitrogen, #35050038), Hepes (Invitrogen, #15630056), Pen/Strep (Invitrogen, #15140122), N2 supplement (Invitrogen, #17502048), B27supplement (Invitrogen, #17504044) and n-Acetylcysteine (Sigma-Aldrich, #A91165). EGF (Invitrogen, #PMG8045), RspoI and noggin were added as niche factor.
Data set [2] concerns S6 ribosomal protein phosphorylation (mTOR signaling). In words: Immunoblot analysis of survival pathways / S6 phosphorylation in AOM/DSS tumor organoids. It counts as cell-based, mice. The settings on record: for ATP induced phosphorylation of S6: ATP (100 μM) in presence of inhibitor, AOM/DSS tumor organoids. On the technique in general: In western blotting, separated proteins are transferred to a membrane and probed.
Method: Data are mean±SD, n=7. *p<0.05 by two-tailed Student's t-test. c, Immunoblot analysis of Lgr5EGFP-DTR(−) tumor organoids treated with ATP (100 μM), 2MeS ADP (100 μM) and adenosine (100 μM) for 30 min. […] Data are mean±SD, n=4 replicates. […] Data are mean±SD, n=3 replicates. One representative of three experiment performed is shown. n.s. p>0,05, *p<0.05***, p<0.001, ****p<0.0001 by 1-way ANOVA with Bonferroni's multiple comparison test. 1, Immunoblot analysis of doxycycline inducible P2x4 knockdown APTAK colon tumor organoids treated with 5-FU (20 μM). Organoids were cultured in medium−/+doxycycline prior to the experiment. […] Organoids were cultured in medium−/+doxycycline prior to the experiment. […] Data are mean±SD, n=3.
In vitro Lgr5+ cells ablation experiments, organoids were treated with 20 ng/ml DT (Millipore, #322326) in the culture medium. For human LGR5+ cells ablation, we treated LGR5-iCT organoids with 500 nM BB homodimerizer. Other treatments were performed as described in each figure legends.

In data set [3] the test system is human colon organoids derived from tumor tissue. As to the kind of experiment: ROS measurement with DCFDA in organoids. It counts as cell-based. The settings on record: 5-FU (20 μM, 20 h). Here is the method: (§1) Data are mean±SD, n=3. […] Data are mean±SD, n=3.
ATP level in organoid supernatant or necrotic medium was measured using the CellTiter-Glo 2.0 Cell Viability Assay (Promega #G9242) according to the manufacturers instruction. ROS levels were measured using H2DCFDA (ThermoFisher #D339). Briefly, organoids were treated as indicated with 5-FU, stained with H2DCFDA and then analyzed for H2DCFDA positivity using fluorescence microscopy or FACS.

Data set [4] relates to S6 ribosomal protein phosphorylation, DNA damage and apoptosis markers.
Data set [5] has as its system subcutaneous AOM/DSSATKN tumors. The format is in vivo, NSG mice.
Data set [6] deals with subcutaneous APTAKshP2x4 tumors. In words: Subcutaneous APTAKshP2x4 tumors, 5-FU/rapamycin with or without NAC. The format is in vivo, mice. The following applies: additional application of NAC (0,5% in drinking water). As to the method: as §1
Organoids were collected using ice cold Cell Recovery Solution (Corning, #354253) and mechanically dissociated into small clusters. Dissociated organoid cells were resuspended in PBS, admixed with 50% Matrigel (Corning, #356231) in a final volume of 100 μl, and injected subcutaneously in the right flank of NSG mice. Tumor size was monitored with a digital caliper and tumor volumes were calculated according to the formula (length×width×width)/2. At the end of experiments mice were humanely euthanized to collect tumors.
DT (Millipore, #322326) treatment was performed as previously described (3, 4). Briefly, DT was injected intraperitonially at a dose of 50 μg/kg for the time indicated in individual experiments. mTOR inhibitor rapamycin (LC Labs, #-5000) was dissolved in 5% Ethanol, 5% PEG400 and 5% Tween 80 in PBS and injected i.p. at 10 mg/kg once a day for indicated time. 0.5% N-acetylcysteine (Sigma-Aldrich, #A91165) was applied ad libitum in drinking water. 0.5 mg/ml Doxycycline (Sigma #D9891) was applied ad libitum in drinking water containing 3% Sucrose. 5-FU (Sigma #F6627) was dissolved in sterile H2O and injected intraperitoneally for the time indicated in individual experiments at a concentration of 20 mg/kg.

Data set [7] relates to Lgr5EGFP-DTR(+) tumor organoids. As to the kind of experiment: Tumor organoid survival / cell death upon treatment with or without DT. It counts as cell-based, mice. The source says:
Representative images are shown from at least three independent experiments. c, Average tumor size was counted on serial hematoxylin and eosin (H&E) stained sections on day 9 after 4 injections of either DT or vehicle. Data are mean±SD, n≥8/treatment. p>0.05 (n.s., not significant) by two-tailed Student's t-test. d, Immunohistochemical analysis and quantification of Lgr5-EGFP expression in GFP-stained colon tumor from Lgr5EGFP-DTR(+) mice on day 9 treated with DT as indicated in a). Representative images are shown (n≥8/treatment, scale bar=300 μm). […] Representative images are shown from four independent experiments (n=4/treatment, scale bar=200 μm). Data represent mean±SD, n=4/treatment. p>0.05 (n.s., not significant) by two-tailed Student's t-test. f, Flow cytometric analysis of Lgr5-EGFP+tumor cells from Lgr5EGFP-DTR(+) tumor organoids 24 h after DT treatment. Representative results are shown (n≥3). g, AOM/DSS colon tumor organoids from Lgr5EGFP-DTR(−) and Lgr5EGFP-DTR(+) mice were treated with DT (20 ng/ml) for 24 h. Representative images are shown from two independent experiments (scale bar=200 μm). h, Immunoblot analysis of Lgr5EGFP-DTR(+) and Lgr5EGFP-DTR(−) tumor organoids treated with DT for 24 h. […] 1, Control and raptor knockdown Lgr5EGFP-DTR(+) tumor organoids were passaged and counted after 72 h. […]

Data set [8] relates to PC3 and C4-2B4 cells. The settings on record: selective P2XR4 antagonists; cited from earlier work.
Data set [9] deals with HCT-116 cells. The following applies: combination of SAMC and rapamycin; cited from earlier work.
Data set [10] concerns S6 phosphorylation in intestinal epithelial cells (IEC). As to the kind of experiment: S6 phosphorylation in intestinal epithelial cells of wildtype mice. It counts as in vivo. The following applies: azoxymethane (10 mg/kg single injection), untransformed wildtype mice. Here is the method:
as §1
Immunostaining was performed as previously described (35). Briefly, tissues were fixed with 4% paraformaldehyde. Six μm OCT frozen tissue sections or 5 μm paraffin-embedded tissue sections were processed for immunostaining using a standard histological protocol. Following primary antibodies were used: EGFP (Abcam, #ab6673), tdTomato (Rockland, #600-401-379), cleaved caspase 3 (Cell Signaling, #9579), Ki67 (Leica Bioststems, #NCL-L-Ki67-MM1), phospho-S6 (Cell Signaling, #2211),P2x4 (Abcam #134559). Sections were then incubated with HRPconjugated antibodies (Dako) and signal was detected with DAB reaction. For immunofluorescence staining after primary antibody incubation, sections were incubated with flourochrome-labelled secondary antibodies (Invitrogen) and sections were mounted with ProLong Gold Antifade Mountant with DAPI (Invitrogen, #P36931). Images were captured on a Zeiss microscope.

Data set [11] relates to AOM/DSSATKN tumor organoids. The settings on record: for rescue of organoid reseeding capacity under 5-FU/rapamycin: inhibitor of potential proapoptotic DAMPs added to 5-FU (20 μM) plus rapamycin (10 μM), 48 hours, re-seeded 72 h.
From the text: Percentage of reseeding capacity compared to vehicle treated organoids is indicated. Data are mean±SD, n=4 replicates. […] Percentage of reseeding capacity compared to vehicle treated organoids is indicated.
Data set [12] concerns refractory metastatic colorectal cancer / refractory solid tumors. The settings on record: further addition of panitumumab to everolimus + mFOLFOX6; cited from earlier work.

Residues, ends and D or L forms follow the SMILES beside them. *: point of attachment. Cbz = O=C(OCc1ccccc1)*; CH2F = FC*

On to `O=c1[nH]cc(F)c(=O)[nH]1` [5-FU, 5-fluorouracil], for which the S6 phosphorylation entry is given as “led to mTOR dependent S6 phosphorylation” in data set [1]; “induced S6 phosphorylation” in data set [4] (5-FU (20 μM, 24 hours), AOM/DSS tumor tissues and tumor organoids). In data set [2] (5-FU, absence of Lgr5+ cells (Noggin withdrawal)), the “phosphorylation of S6” value is listed as “able to induce phosphorylation of S6”. Moreover, in data set [3], the “ROS levels (DCFDA)” value is on record as “tumor organoid specific ROS increase”. As to `Clc1cccc(-c2nnnn2Cc2cccnc2)c1Cl` [A-438079], in [2], the “ATP induced phosphorylation of S6” value is reported as “did not decrease ATP dependent S6 phosphorylation”. Regarding `Nc1ncnc2c1ncn2[C@@H]1O[C@H](COP(=O)(O)OP(=O)(O)OP(=O)(O)O)[C@@H](O)[C@H]1O` [ATP, adenosine triphosphate], the “phosphorylation of S6-ribosomal protein” value in [2] (Lgr5EGFP-DTR(−) tumor organoids, 100 μM, 30 min) was “induced phosphorylation of S6-ribosomal protein”. `CC(=O)N[C@@H](CS)C(=O)O` [NAC, N-acetylcysteine]: the “apoptosis in tumor tissues (cleaved Caspase 3)” value in [5] (NAC (0,5% in drinking water) in DT/rapamycin treated animals) is recorded as “reduced apoptosis in tumor tissues”. Besides, the “DNA damage and apoptosis in tumor organoids” value in data set [4] (NAC (2 mM) in addition to DT and rapamycin, compared to DT/rapamycin alone) was “decreased DNA damage and apoptosis”. For the same molecule, in [6], the “tumor regression in 5-FU/rapamycin treated mice” value is given as “revert tumor regression”. With `O=C(Nc1ccc(C(=O)Nc2ccc(C(=O)Nc3ccc(S(=O)(=O)O)c4cc(S(=O)(=O)O)cc(S(=O)(=O)O)c34)cc2)cc1)Nc1ccc(C(=O)Nc2ccc(C(=O)Nc3ccc(S(=O)(=O)O)c4cc(S(=O)(=O)O)cc(S(=O)(=O)O)c34)cc2)cc1` [NF279], the “ATP induced phosphorylation of S6” value in [2] is reported as “did not decrease ATP dependent S6 phosphorylation”. On to `CNC(=O)c1ccc(C)c(-n2c(C)cc(OCc3ccc(F)cc3F)c(Br)c2=O)c1` [PH797804], for which the tumor organoid survival entry in [7] (MAPK inhibitor (JNK or p38) in the presence or absence of DT) was “did not affect tumor organoid survival”. With `Cc1nc(N=Nc2ccc(S(=O)(=O)O)cc2S(=O)(=O)O)c(COP(=O)(O)O)c(C=O)c1O` [PPADS], in data set [2] (non-selective P2 receptor antagonists), the “Lgr5+ cell death induced S6 phosphorylation” value is “blocked Lgr5+ cell death induced S6 phosphorylation”.

For the molecule `Cc1ccc(S(=O)(=O)N2c3ccccc3Oc3ccccc32)cc1` [PSB-12062], the “growth, mobility and apoptosis of PCa cells” value in data set [8] is “impaired the growth and mobility of PCa cells but not apoptosis”. In the case of `C=CCSSC[C@H](N)C(=O)O` [SAMC, S-allylmercapto-cysteine], the tumor suppression entry in data set [9] is “enhanced tumor-suppressing ability”. `CN=[N+](C)[O-]` [azoxymethane]: the “S6 phosphorylation in IEC” value in data set [10] was “enhanced S6 phosphorylation in IEC”. Regarding `Nc1nc2c(ncn2[C@@H]2O[C@@H]3COP(=O)(O)O[C@H]4[C@@H](O)[C@H](n5cnc6c(N)ncnc65)O[C@@H]4COP(=O)(O)O[C@@H]2[C@@H]3O)c(=O)[nH]1` [cGAMP], in data set [2] (exogenous cGAMP), the “phosphorylation of S6-ribosomal protein” value was “induced phosphorylation of S6-ribosomal protein in a dose dependent manner”.

In the case of `NC(=O)c1ncn([C@@H]2O[C@H](CO)[C@@H](O)[C@H]2O)c1O` [mizoribine], the S6-ribosomal protein phosphorylation entry in [5] (mizoribine in combination with DT-mediated depletion of Lgr5+ cells) was “without affecting S6-ribosomal protein phosphorylation”. Besides, in data set [5] (mizoribine in combination with DT-mediated depletion of Lgr5+ cells, s.c. tumors), the “viable proliferative tumor cells” value was “markedly reduced viable proliferative”. For the same molecule, the organoid collapse result in [7] (mizoribine in combination with DT-mediated depletion of Lgr5+ cells, ex vivo) is “profound organoid collapse”. `COC(=O)C[C@H](NC(=O)[C@H](C)NC(=O)[C@@H](NC(=O)OCc1ccccc1)C(C)C)C(=O)CF` [zVAD, carbobenzoxy-valyl-alanyl-aspartyl-[O-methyl]-fluoromethyl ketone] (Cbz-Val-Ala-Asp(OMe)-CH2F): in data set [11] (apoptosis inhibitor zVAD (50 μM) added), the “organoid survival under combined 5-FU/rapamycin treatment” value is on record as “rescued the negative effect of combined 5-FU/rapamycin treatment on organoid survival”. Regarding Anakinra: IL-1 signaling inhibitor, the “rescue of organoid reseeding capacity under 5-FU/rapamycin” value in data set [11] was “only inhibition of ROS signaling by NAC was able to rescue”. Regarding Apyrase, the “S6 phosphorylation induced by DT treatment or necrotic supernatant” value in data set [2] (Apyrase hydrolyzing released ATP) is “reduce the levels of S6 phosphorylation”. For the molecule Enbrel, the “rescue of organoid reseeding capacity under 5-FU/rapamycin” value in data set [11] was “only inhibition of ROS signaling by NAC was able to rescue”. On to “panitumumab: added to everolimus + mFOLFOX6 in phase I trial”, for which the toxicity result in data set [12] was “unacceptable level of toxicity”.

The record behind these values is US20240075036A1, “THERAPEUTIC COMBINATIONS INCLUDING INHIBITORS OF THE P2X4 RECEPTOR FOR TREATING AND PREVENTING PROLIFERATIVE DISORDERS” (CHEMOTHERAPEUTISCHES FORSCHUNGSINSTITUT GEORG-SPEYER-HAUS, priority 2021, published 2024).
